Data on eight molecules can be found in ChEMBL document CHEMBL4425168, “Dehydrozingerone Inspired Styryl Hydrazine Thiazole Hybrids as Promising Class of Antimycobacterial Agents” (ACS Med Chem Lett, 2016).

Broadly, the IC50 is the concentration that inhibits the measured activity by half. The term IC90 denotes the point of the concentration-response curve where the effect stands at 90%. The low end stands for greater potency, the high end for weaker potency. By MIC is commonly meant the smallest concentration in the dilution series that meets the test's criterion for growth inhibition.

Common to all, as to assay type: functional, organism-based
The subject of assay [1] is Mycobacterium tuberculosis. In words: Antitubercular activity against Mycobacterium tuberculosis H37Rv RIF-R1 harboring nrpoB S522L mutant after 5 days.
The test system of assay [2] is Mycobacterium tuberculosis. In words: Antitubercular activity against Mycobacterium tuberculosis H37Rv INH-R1 harboring katG Y155 mutant after 5 days.
Assay [3] concerns Mycobacterium tuberculosis. Briefly: Antitubercular activity against Mycobacterium tuberculosis H37Rv FQ-R1 harboring gyrB D94N mutant after 5 days.

The structures appear in SMILES notation. Converted amounts (≈) assume the structure as drawn.

In assay [1], `COc1ccc(/C=C/C(C)=N/Nc2nc(-c3ccc(N)cc3)cs2)cc1OC` gave a 50% inhibitory concentration (IC50) of 0.54 µM, a concentration for an effect of 90% (IC90) of 2.6 µM and an MIC of 2.2 µM (≈ 0.868 µg/mL). In assay [2], the midpoint of inhibition, the IC50, lay at 0.68 µM; it took 3.8 µM to reach the 90% level (IC90); the MIC is 3.2 µM (≈ 1.26 µg/mL). In assay [3], this molecule returned an IC50 of 2.3 µM, an IC90 of 33 µM and an MIC of 21 µM (≈ 8.28 µg/mL).

Turning to `COc1ccc(/C=C/C(C)=N/NC(N)=S)cc1OC`, in assay [1], inhibition was half-maximal at 1.1 µM (IC50), the IC90 is 4.6 µM and the MIC amounted to 4 µM (≈ 1.12 µg/mL). In addition, in assay [2], the concentration for half-maximal inhibition (IC50) was 1.3 µM, the concentration for an effect of 90% (IC90) came to 6.6 µM and the minimum inhibitory concentration (MIC) amounted to 5.3 µM (≈ 1.48 µg/mL). Also, in assay [3], inhibition was half-maximal at 2.8 µM (IC50), the IC90 amounted to 16 µM and the MIC amounted to 17 µM (≈ 4.75 µg/mL).

In the case of `COc1ccc(/C=C/C(C)=N/Nc2nc(-c3ccc(OC)c(OC)c3)cs2)cc1OC`, in assay [1], the IC50 stood at 9.2 µM, the IC90 is 27 µM and the minimum inhibitory concentration (MIC) amounted to 28 µM (≈ 12.3 µg/mL). Also, in assay [2], the IC50 stood at 12 µM, the IC90 is over 200 µM and the MIC stood at 24 µM (≈ 10.5 µg/mL). In assay [3], the IC50 turned out to be 18 µM, the concentration for an effect of 90% (IC90) is over 200 µM and the MIC was 30 µM (≈ 13.2 µg/mL).

With `COc1ccc(-c2csc(N/N=C(C)/C=C/c3ccc(OC)c(OC)c3)n2)cc1`, the results for the concentration for half-maximal inhibition (IC50) in assay [1], in assay [2] and in assay [3] were 11 µM, 12 µM and 23 µM, respectively. The IC90 in assay [1], in assay [2] and in assay [3] was over 50 µM throughout. Also, the MIC is 25 µM (≈ 10.2 µg/mL) in assay [1], 15 µM (≈ 6.14 µg/mL) in assay [2] and 22 µM (≈ 9.01 µg/mL) in assay [3].

Turning to `COc1ccc(/C=C/C(C)=N/Nc2nc(-c3c(OC)cccc3OC)cs2)cc1OC`, the IC50 was found to be 7 µM in assay [1], 9.1 µM in assay [2] and 13 µM in assay [3]. For the same molecule, the values for the 90% effect concentration (IC90) in assay [1], in assay [2] and in assay [3] were 19 µM, over 25 µM and over 25 µM, respectively. Besides, the MIC is 17 µM (≈ 7.47 µg/mL) in assay [1], 32 µM (≈ 14.1 µg/mL) in assay [2] and 33 µM (≈ 14.5 µg/mL) in assay [3].

In assay [1], `NNC(=O)c1ccncc1` [ISONIAZID] returned an IC50 of 0.15 µM, an IC90 of 0.21 µM and an MIC of 0.17 µM (≈ 0.0233 µg/mL). In assay [2], this molecule yielded an IC50 of over 200 µM, an IC90 of over 200 µM and an MIC of over 200 µM. In assay [3], this molecule yielded an IC50 of 0.36 µM, an IC90 of 0.47 µM and an MIC of 0.35 µM (≈ 0.048 µg/mL).

As to `C[C@H]1COc2c(N3CCN(C)CC3)c(F)cc3c(=O)c(C(=O)O)cn1c23.C[C@H]1COc2c(N3CCN(C)CC3)c(F)cc3c(=O)c(C(=O)O)cn1c23.O` [LEVOFLOXACIN], in assay [1], 0.59 µM corresponded to half-maximal inhibition (IC50), the 90% effect concentration (IC90) stood at 0.91 µM and the MIC was 0.76 µM. For the same molecule, in assay [2], 0.64 µM corresponded to half-maximal inhibition (IC50), the concentration for an effect of 90% (IC90) was determined as 1.4 µM and the MIC was found to be 1.2 µM. Besides, in assay [3], the IC50 is 12 µM, the IC90 was 22 µM and the MIC was found to be 20 µM.

In assay [1], `CO[C@H]1/C=C/O[C@@]2(C)Oc3c(C)c(O)c4c(O)c(c(/C=N/N5CCN(C)CC5)c(O)c4c3C2=O)NC(=O)/C(C)=C\C=C\[C@H](C)[C@H](O)[C@@H](C)[C@@H](O)[C@@H](C)[C@H](OC(C)=O)[C@@H]1C` [RIFAMPIN] registered a 50% inhibitory concentration (IC50) of 1.2 µM, an IC90 of 2.3 µM and an MIC of 2 µM (≈ 1.65 µg/mL). In assay [2], this molecule displayed an IC50 of 0.0084 µM, a concentration for an effect of 90% (IC90) of 0.022 µM and an MIC of 0.018 µM (≈ 0.0148 µg/mL). Moreover, in assay [3], the IC50 worked out at 0.013 µM, the 90% effect level (IC90) was put at 0.039 µM and the MIC worked out at 0.027 µM (≈ 0.0222 µg/mL).
